Experimental data published in patent US20260217863A1, “ANTIBODY OR PEPTIDE BINDING SPECIFICALLY TO RNASE A, IMMUNOASSAY DEVICE AND METHOD FOR DETECTING RNASE A, AND METHOD FOR COLLECTING RNASE A” (UIF (University Industry Foundation), Yonsei University, priority 2022, published 2026).

What was measured:
RNase A [1] = target: T1, RNase A (Bos taurus, UniProt P61823); assay: RNA cleavage assay with total RNA from HeLa cells, agarose gel imaging; assay type: biochemical, bovine; set-up: Ribonuclease A (Type II-A) from bovine pancreas; purchased Sigma-Aldrich Korea; host or cells: bovine pancreas; conditions: RNase 0.7 μg/ml, agarose gel image analysis, read-out: IC50 for RNase A activity inhibition
T1 sequence (P61823 27-150): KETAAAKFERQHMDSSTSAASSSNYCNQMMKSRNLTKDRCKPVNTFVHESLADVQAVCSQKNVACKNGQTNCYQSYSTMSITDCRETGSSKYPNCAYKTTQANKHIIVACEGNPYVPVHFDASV
Description: The analysis of RNase inhibitory activity of Fv antibodies and synthetic peptides was performed using RNA samples extracted from HeLa cells as follows: (1) Mixing the RNA sample extracted from HeLa cells (600 ng) with 87.5 nM-5.6 μM under conditions of 37° C. for 30 minutes, (2) Electrophoresis on a 1% agarose gel at 90 V for 40 minutes. The estimation of RNase inhibitory activity was carried out by gel imaging of the cleaved RNA using a ChemiDoc XPS (Bio-Rad, CA, USA).
(§1) Using RNA samples extracted from HeLa cells, the RNase inhibitory activity of the synthesized peptides was estimated. The RNase inhibitory activity was assessed using agarose gel imaging of the cleaved RNA. To optimize the RNase concentration for the RNase inhibition assay, total RNA was treated with RNase A (600 ng), with RNase A concentrations ranging from 5.7 ng/ml to 3.6 μg/ml, and the cleaved RNA bands were observed after treatment with ETBR (ethidium bromide). […] The RNase concentration for inhibition analysis was determined to be 0.7 μg/ml, with RNase concentrations above 3.6 μg/ml. The inhibition analysis was performed by mixing total RNA from HeLa cells with RNase (0.7 μg/ml) and Fv-antibody at a concentration of 10 μM, resulting in the observation that the entire RNA was completely cleaved into small RNA bands in the absence of the Fv-antibody. […] The optimal concentration of the Fv-antibody for RNase inhibition was determined by the cleavage reaction with total RNA in the concentration range of 87.5 nM to 5.6 μM for Fv-antibodies (Fv-1, Fv-2, Fv-3).
The analysis of RNase inhibitory activity of Fv antibodies and synthetic peptides was performed using RNA samples extracted from HeLa cells as follows: (1) A mixture of RNA samples extracted from HeLa cells (600 ng) was prepared at concentrations of 87.5 nM-5.6 μM and incubated at 37° C. for 30 minutes; (2) Electrophoresis was conducted in a 1% agarose gel under 90 V for 40 minutes. The estimation of RNase inhibitory activity was carried out by gel imaging of the cleaved RNA using a ChemiDoc XPS (Bio-Rad, CA, USA).
as §1, with “the” for “the concentration”

RNase A [2] = target: T1, RNase A; assay: RNase activity test kit, modified Taq-man RNA probe analysis (ab273299); assay type: biochemical; set-up: purchased Abcam ab273299; conditions: inhibitor 1 μM; after 60 minutes; positive control (no inhibitor) = 100%
Description: The activity of RNase A, which degrades RNA, was evaluated using specially designed RNA probes. This RNase A analysis was performed using a commercial RNase activity test kit based on a modified Taq-man probe analysis (ab273299) from Abcam (Cambridge, UK). To compare inhibitory activity, three synthetic peptides (peptide-1, peptide-2, peptide-3) and three expressed Fv-antibodies (Fv-1, Fv-2, and Fv-3) were compared using two types of commercially available RNase inhibitors from Biofact™ (Daejeon, South Korea) and two types of RNaseOUT™ from Thermofisher (USA). The probes for the RNase inhibition analysis contained RNA probes with fluorescent dyes and quenching materials at each end of the RNA sequence. […] To estimate the RNase A inhibitory activity by the three synthesized peptides, each peptide was treated at a concentration of 1 μM using the analysis kit, and RNase activity was measured. The positive control was prepared to have an RNase reaction without an inhibitor, and the negative control was prepared to have an RNase reaction without the RNA probe. […] The RNase A inhibitory activity of the three synthesized peptides was analyzed after treating each peptide at a concentration range of 100 μM to 1 μM in the assay kit. […] The RNase A inhibitory activity of the three expressed Fv-antibodies was analyzed after treating each peptide at a concentration range of 100 μM to 1 μM in the analysis kit.
The activity of RNase A, which degrades RNA, was evaluated using specially designed RNA probes. This RNase A analysis was performed using a commercial RNase activity test kit based on a modified Taq-man probe analysis (ab273299) from Abcam (Cambridge, UK). For the comparison of inhibitory activity, three synthetic peptides (Peptide-1, Peptide-2, Peptide-3) and three expressed Fv-antibodies (Fv-1, Fv-2, and Fv-3) were compared using two types of commercially available RNase inhibitors from Biofact™ (Daejeon, South Korea) and two types of RNaseOUT™ from Thermofisher (USA). The probes for the RNase inhibition analysis contain RNA probes with fluorescent dyes and fluorescent quenchers at each end of the RNA nucleotide sequence.
To estimate the RNase A inhibitory activity of the three synthesized peptides, each peptide was treated at a concentration of 1 μM using an assay kit, and the RNase activity was evaluated. The positive control was prepared to have an RNase reaction without the inhibitor, while the negative control was prepared to have an RNase reaction without the RNA probe.
The RNase A inhibitory activity of the three synthesized peptides was analyzed after treating each peptide at a concentration range of 100 μM to 1 μM with the RNase A from the assay kit.

Row | Substance | IC50 (RNase A [1]) [nM] | relative inhibition level / reduction of RNase A activity (RNase A [2]) [%]
1 | Inhibitor-1 [reference compound] | 257 | 35.8
2 | Inhibitor-2 [reference compound] | 381 | 27.2
